Results: patent publication US8268836B2, “Compound useful as a c-Met inhibitor” (Eli Lilly and Company, priority 2010, dated 2012)

Columns and labels:
[1] = target: T1, human c-Met (phospho-c-Met in S114 tumors) (Homo sapiens, UniProt P08581); assay: c-Met in vivo target inhibition (IVTI) assay, S114 tumors in nude mice; parameters: species or system mouse
T1 construct: expressed in transfected cells; host or cells: S114 cells grown as subcutaneous tumors in athymic nude mice
Description: S114 cells (over-expressing both human HGF and human c-Met) are cultured in a growth media (Dulbecco's Modified Eagle Medium) supplemented with 10% fetal calf serum and expanded. Cells are harvested and washed twice with phosphate buffered saline and 2×10^6 cells are mixed with equal volume of BD Matrigel™ matrix (BD Bioscience, Franklin, N.J.), and injected subcutaneously into the flank of nude mice (athymic nude, from Harlan, Indianapolis, Ind.). At day 8 after implant, compounds (formulated in 10% acacia or 1% carboxymethylcellulose/0.5% sodium lauryl sulfate/0.05% antifoam as suspension) are administered to animals by oral gavage at 50 mg/kg. Animals are sacrificed at 2 h post dose, and tumors are harvested and stored frozen until needed.
Frozen tumors are pulverized using motar-pestel. The pulverized tissues are transferred to a tube containing Lysing Matrix D beads (MP Biomedicals, Solon, Ohio) and 600 μL lysis buffer (RIPA buffer, containing 50 mM Tris-HCl, pH 7.4, 150 mM NaCl, 1% NP-40, 0.5% sodium deoxycholate, 0.1% SDS, from Boston Bioproducts, Phosphatase Inhibitors I and II and Protease Inhibitor (Sigma, St. Louis, Mo.)). A FastPrep® Cell Disrupter (MP Biomedicals, Inc.) is used to disrupt the tissue and lyse the cells. Lysates are passed through a 20 gauge needle and transferred to a clean tube. Protein concentration is determined by Bradford method known to one of skill in the art.
Tumor lysates are loaded onto MSD® phosphor-Met ELISA plates and phosphor-c-Met level is determined using the same protocol as H460 cell-based ELISA. […] The TEC50 for example 1 is 0.18 μM with a 95% confidence interval bounded by 0.13 μM and 0.23 μM.
In IVTI studies, each compound is administered orally and formulated in 10% w/v acacia. Mouse blood samples are collected with anti-coagulant (EDTA-purple top Vacutainer tube) post-dose using cardiac puncture techniques. Tubes are inverted for 3-5 times and are placed on ice until centrifugation at 3000 RPM (1800×g) for 10 min at 4° C. to obtain plasma. Aliquots of plasma are pipetted and stored in a clean 96 well plate. Plasma samples are stored immediately at −80° C. Shipments of plasma samples are packed in dry ice and samples are frozen at −80° C. until analysis.

[2] = Kinetic solubility screen (nephelometry); assay type: physicochemical
Description: The assay is used to determine the concentration range in which a compound that has been pre-solubilized in DMSO at 10 mM will precipitate from a solution. The assay is conducted in a screening format on a 96-well plate and measures the nephelometry (light scattering) from precipitated compound in aqueous phosphate buffer (50 mM; pH 7.4). This method consists of a 2-hour RT (room temperature) incubation of compound in buffer at concentrations of 10, 20, 40, 60, 80, and 100 μM (where % DMSO is kept constant). Plates are pre-read by the nephelometer to determine if scratches or dust particles are present and this is used for background subtraction. The reported values are the concentrations at which the last soluble and first insoluble are achieved. These assays are not optimized to assess equilibrium solubility or determine a “true” kinetic solubility.

MKN45 gastric xenografts = assay: Xenograft tumor model MKN45; assay type: in vivo, mice
Description: (§1) Human glioblastoma cells U87MG, human gastric cancer cells MKN45, or human pancreatic KP4 cells are cultured and implanted subcutaneously in the rear flank of female CD-1 nu/nu strain mice which have been acclimated for one week in the animal facility after receipt from the vendor. Mice are randomized into groups of 10 mice per group. Testing compound is prepared in an appropriate vehicle and is administered by oral gavage when tumors are established (7-21 days after implant, or when the mean tumor volume reaches ˜100 mm^3). Tumor response is determined by tumor volume measurement performed twice a week during the course of treatment. Fluctuations in body weight are also monitored as a general measurement of toxicity. The compound of example 1 is orally administered twice a day for 28 days.
(§2) For statistical analysis, the individual subject tumor volumes are transformed to log volume and are analyzed with a two-way repeated measures analysis of variance by time and treatment using the MIXED procedures in SAS software (version 8.2). The correlation model for the repeated measures is spatial power. Treated groups are compared to the control group at the final time point. The MIXED procedure is also used separately for each treatment group to calculate adjusted means and standard errors at each time point. Both analyses account for the autocorrelation within each subject.

[3] = system: KP4 pancreatic xenografts; assay: Xenograft tumor model KP4; assay type: in vivo, mice
Description: as §1, §2

[4] = Rat bioavailability study; assay type: in vivo
Description: In rat bioavailability studies, each compound is administered intravenously (IV) or orally (PO). Intravenous dosing is formulated in solution formulation and oral dosing is formulated in 10% w/v acacia. Rat blood samples are collected using anti-coagulant (EDTA) collection tubes and centrifugation is performed to obtain plasma samples. Aliquots of plasma are pipetted and stored immediately at <−20° C. Shipments of plasma samples are packed in dry ice if needed and samples are frozen at <−20° C. until analysis.
A stock solution of each drug is prepared and is diluted into pooled rat plasma to prepare standards. Plasma standards or samples are treated by protein precipitation or liquid-liquid extraction using organic solvent containing internal standard. The mixtures are centrifuged and aliquots of the resulting supernatant fractions are transferred. In the case of protein precipitation, supernatant is diluted and analyzed using a Mass Spectrometer coupled to a HPLC System and an autosampler. In the case of liquid-liquid-extraction, supernatant is dried under N2 at 40° C., reconstituted and analyzed using a Mass Spectrometer coupled to a HPLC System and an autosampler. Quantitation is performed using multiple reaction monitoring (MRM) and linear regression plots of compounds to internal standard peak area ratios versus drug concentrations.

[5] = 4 mg/kg oral twice a day for 28 days
[6] = 8 mg/kg oral twice a day for 28 days
[7] = 16 mg/kg oral twice a day for 28 days
[8] = 32 mg/kg oral twice a day for 28 days
[9] = plasma, PO 10 mg/kg in 10% acacia, Example 1 dosed as mesylate salt

T1 sequence (P08581 25-1390): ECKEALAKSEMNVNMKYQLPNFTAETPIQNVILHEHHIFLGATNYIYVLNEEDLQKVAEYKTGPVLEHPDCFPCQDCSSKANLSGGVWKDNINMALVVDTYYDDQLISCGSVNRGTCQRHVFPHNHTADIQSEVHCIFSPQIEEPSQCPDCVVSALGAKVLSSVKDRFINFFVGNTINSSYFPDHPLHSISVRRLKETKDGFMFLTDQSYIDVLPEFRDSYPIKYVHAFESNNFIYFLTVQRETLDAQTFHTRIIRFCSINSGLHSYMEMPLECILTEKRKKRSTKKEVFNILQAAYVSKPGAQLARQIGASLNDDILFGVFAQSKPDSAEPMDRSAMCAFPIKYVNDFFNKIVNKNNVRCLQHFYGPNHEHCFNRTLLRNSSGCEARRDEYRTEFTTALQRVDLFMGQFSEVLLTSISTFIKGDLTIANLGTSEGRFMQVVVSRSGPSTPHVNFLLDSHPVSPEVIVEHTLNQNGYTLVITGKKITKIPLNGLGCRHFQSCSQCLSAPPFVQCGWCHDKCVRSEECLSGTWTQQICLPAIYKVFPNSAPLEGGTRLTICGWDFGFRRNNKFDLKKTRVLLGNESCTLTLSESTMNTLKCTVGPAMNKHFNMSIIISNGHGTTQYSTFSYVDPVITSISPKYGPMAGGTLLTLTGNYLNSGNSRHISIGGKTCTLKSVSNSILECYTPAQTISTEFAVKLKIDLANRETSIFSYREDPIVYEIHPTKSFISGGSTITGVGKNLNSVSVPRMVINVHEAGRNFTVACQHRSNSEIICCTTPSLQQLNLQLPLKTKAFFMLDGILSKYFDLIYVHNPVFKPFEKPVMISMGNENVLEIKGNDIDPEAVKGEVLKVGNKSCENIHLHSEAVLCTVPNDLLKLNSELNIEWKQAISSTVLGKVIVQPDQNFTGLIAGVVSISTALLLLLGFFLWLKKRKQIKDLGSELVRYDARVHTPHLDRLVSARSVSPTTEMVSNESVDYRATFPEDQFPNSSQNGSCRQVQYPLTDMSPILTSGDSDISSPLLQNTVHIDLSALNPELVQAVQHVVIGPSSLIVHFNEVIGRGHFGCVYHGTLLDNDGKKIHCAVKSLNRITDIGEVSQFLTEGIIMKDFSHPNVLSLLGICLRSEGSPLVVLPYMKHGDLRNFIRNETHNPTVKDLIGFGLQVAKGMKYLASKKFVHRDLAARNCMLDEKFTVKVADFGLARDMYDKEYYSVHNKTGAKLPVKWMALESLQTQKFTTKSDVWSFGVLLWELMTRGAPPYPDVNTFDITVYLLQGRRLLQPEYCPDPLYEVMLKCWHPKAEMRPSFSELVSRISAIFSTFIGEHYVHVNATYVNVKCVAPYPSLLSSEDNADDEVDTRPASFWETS

Molecule `Cn1cc(-c2ccc3nnc(Sc4ccc5nn(C)cc5c4)n3n2)cn1` [Example 1, 6-(1-Methyl-1H-pyrazol-4-yl)-3-(2-methyl-2H-indazol-5-ylthio)-[1,2,4]triazolo[4,3-b]pyridazine] has an inhibition at 16 mg/kg ([1]; 16 mg/Kg dose, 2 h, experiment separate from head to head study, read-out: Single dose IVTI % inhibition after 2 h) of 98%, an EC50 ([1]; S114 tumors in nude mice, read-out: TEC50) of 180 nM and an inhibition at 8 mg/kg ([1]; S114 tumors, oral 8 mg/kg, 8 h, read-out: % phos-Met inhibition at 8 mg/kg after 8 h) of 75%. For the same molecule, the inhibition at 20 mg/kg ([1]; S114 tumors, oral 20 mg/kg, 8 h, read-out: % phos-Met inhibition at 20 mg/kg after 8 h) was 93%, the ED50 ([1]; oral gavage, S114 tumors in nude mice) was 0.32 mg/kg and the “1st insoluble pH 7.4” value ([2]; 50 mM phosphate buffer pH 7.4, 2 h RT, from 10 mM DMSO) was “Non detect”. For the same molecule, the solubility at 2 h ([2]; aqueous phosphate buffer, aqueous buffer, kinetic from dmso stock, 50 mM phosphate buffer pH 7.4, 2 h RT, from 10 mM DMSO, read-out: Last soluble pH 7.4) was greater than 100 µM, the “fold more soluble than the reference compound in pH 7.4 buffer” value ([2]; kinetic solubility screen pH 7.4) was “at least 3 fold” and the “Mean Tumor Volume ± Standard Error” value (MKN45 gastric xenografts; [5]) was 329 ± 54 mm^3. The “Mean Tumor Volume ± Standard Error” value (MKN45 gastric xenografts; [6]) was 296 ± 29 mm^3, the “Mean Tumor Volume ± Standard Error” value (MKN45 gastric xenografts; [7]) was 166 ± 10 mm^3 and the “Mean Tumor Volume ± Standard Error” value (MKN45 gastric xenografts; [8]) was 161 ± 14 mm^3. The “Mean Tumor Volume ± Standard Error” value ([3]; 2 mg/kg oral twice a day for 28 days) was 1229 ± 83 mm^3, the “Mean Tumor Volume ± Standard Error” value [3, 5] was 1085 ± 256 mm^3 and the “Mean Tumor Volume ± Standard Error” value [3, 6] was 627 ± 74 mm^3. For the same molecule, the “Mean Tumor Volume ± Standard Error” value [3, 7] was 554 ± 47 mm^3, the “Mean Tumor Volume ± Standard Error” value [3, 8] was 273 ± 42 mm^3 and the “fold increase in oral bioavailability vs reference compound” value [4] was 4.5 fold. For the same molecule, the “fold longer terminal elimination half life vs reference compound” value ([4]; 1 mg/kg intravenous dose) was 4 fold, the “fold lower plasma clearance vs reference compound” value ([4]; 1 mg/kg intravenous dose) was 18 fold and the “fold higher exposure by peak plasma concentration vs reference compound” value ([4]; 10 mg/kg oral dose, 10% acacia) was 57 fold. For the same molecule, the “fold higher exposure by plasma AUC vs reference compound” value ([4]; 10 mg/kg oral dose, 10% acacia) was 93 fold, the clearance ([4]; plasma, IV 1 mg/kg solution, Example 1 dosed as mesylate salt) was 1.7 mL/min/kg and the half-life ([4]; plasma, IV 1 mg/kg solution, Example 1 dosed as mesylate salt, read-out: T½ (converted)) was 138 min. For the same molecule, the Vd ([4]; plasma, IV 1 mg/kg solution, Example 1 dosed as mesylate salt, read-out: Vdss) was 0.3 L/kg, the AUC [4, 9] was 73800 ng·h/mL and the Cmax [4, 9] was 9400 ng/mL. It also gave a Tmax [4, 9] of 3.33 h and a bioavailability ([4]; plasma, PO 10 mg/kg vs IV 1 mg/kg, Example 1 dosed as mesylate salt, read-out: F % (oral bioavailability)) of 65.8%.
